The values that follow are results of earlier work, collected in paper PMC6838683, “Discovery of Human Signaling Systems: Pairing Peptides to G Protein-Coupled Receptors” (Cell, 2019).

The series relates to human GPCRs. Set-up: method as in Guide to Pharmacology database. The settings on record: max reported value, ref Guide to Pharmacology database, cited from earlier work. From the text: Supplement mmc1.xlsx, sheet "HumanGPCRLigands" | column: pKi_value; pKd_value; pEC50_value; pIC50_value
Setting [1] is: receptor RXFP1 (rxfp1_human, Q9HBX9).
[2] abbreviates: receptor RXFP2 (rxfp2_human, Q8WXD0).
The mark [3] stands for this setting: receptor RXFP3 (rl3r1_human, Q9NSD7).
[4] abbreviates: receptor RXFP4 (rl3r2_human, Q8TDU9).
[5] abbreviates: receptor crfr2_human (CRHR2, Q13324).
[6] abbreviates: receptor UTS2R (ur2r_human, Q9UKP6).
Where [7] appears, read: receptor OPRK1 (oprk_human, P41145).
The mark [8] stands for this setting: receptor CCR5 (ccr5_human, P51681).
Setting [9] is: receptor CCR1 (ccr1_human, P32246).
Where [10] appears, read: receptor CCR3 (ccr3_human, P51677).
The mark [11] stands for this setting: receptor XCR1 (xcr1_human, P46094).
[12] abbreviates: receptor CCR4 (ccr4_human, P51679).

Read-outs that look alike come from different tables or passages of the source. No end group written: not given here.

Consider relaxin, for which, under setting [1], the pEC50_value is 10.4 and the pKi_value is on record as 10.2. Also, under setting [2], the pEC50_value was 9.1 and the pKi_value is 8.5. Under setting [3], the pEC50_value is reported as 8.4 and the pKd_value is on record as 10. With relaxin-3, the pKi_value is, setting by setting: under setting [1], 8; under setting [2], 7; under setting [3], 8.9; under setting [4], 9. Also, the pEC50_value reads like this: under setting [3], 9.9; under setting [4], 9. In addition, the pIC50_value reads like this: under setting [3], 9.6; under setting [4], 9. Take secretin: under “receptor sctr_human (SCTR, P47872)”, the pEC50_value is reported as 9.7. Regarding “urocortin 1 (DNPSLSIDLTFHLLRTLLELARTQSQRERAEQNRIIFDSV; ends and bridges not checked; UniProt P55089 83-122, looked up)”, the pKd_value is reported as 9.5 (receptor crfr1_human (CRHR1, P34998)) and 9.6 under setting [5]. Regarding “urocortin 2 (IVLSLDVPIGLLQILLEQARARAAREQATTNARILARVGHC; ends and bridges not checked; UniProt Q96RP3 72-112, looked up)”, the pKd_value under setting [5] is 8.6. For the molecule “urocortin 3 (FTLSLDVPTNIMNLLFNIAKAKNLRAQAAANAHLMAQI; not fully specified; ends and bridges not checked; UniProt Q969E3 120-157, looked up)”, under setting [5], the pKd_value was 8.

In the case of urotensin II-related peptide, under setting [6], the pIC50_value is 8.6 and the pKd_value is on record as 9.6. On to “α-neoendorphin (YGGFLRKYPK; Alpha-neoendorphin; UniProt P01213 175-184, looked up)”, for which, under setting [7], the pKi_value was 10.2.

As to β-CGRP, under “receptor calcr_human (CALCR), Calcitonin receptors, Class B1 (Secretin)”, the pEC50_value was 7.2. As for β-endorphin, the pKi_value (receptor OPRD1 (oprd_human, P41143)) is listed as 8.3 and the pKi_value under setting [7] was 7.9. In the case of β-neoendorphin (YGGFLRKYP), under setting [7], the pKi_value is recorded as 7.9. With γ-MSH, the pKd_value (receptor mc3r_human (MC3R, P41968)) is 8.5.

B1: CCL8 (protein, UniProt P80075 24-99, looked up)
C-C motif chemokine 8: QPDSVSIPITCCFNVINRKIPIQRLESYTRITNIQCPKEAVIFKTKRGKEVCADPKERWVRDSMKHLDQIFQNLKP
As for B1, where the note is “receptor CCR2 (ccr2_human, P41597)”, the pIC50_value is given as 8.6. The pKi_value under setting [8] was 9.3.

B2: large neuromedin N (protein, UniProt P30990 24-148, looked up)
Large neuromedin N: SDSEEEMKALEADFLTNMHTSKISKAHVPSWKMTLLNVCSLVNNLNSPAEETGEVHEEELVARRKLPTALDGFSLEAMLTIYQLHKICHSRAFQHWELIQEDILDTGNDKNGKEEVIKRKIPYIL
modifications: Large neuromedin N
On to B2, for which the pIC50_value (receptor NTSR1 (ntr1_human, P30989)) is listed as 7.4.

B3: CCL23 (protein, UniProt P55773 22-120, looked up)
C-C motif chemokine 23: RVTKDAETEFMMSKLPLENPVLLDRFHATSADCCISYTPRSIPCSLLESYFETNSECSKPGVIFLTKKGRRFCANPSDKQVQVCMRMLKLDTRIKTRKN
With B3, under setting [9], the pKi_value was 8.9.

B4: CXCL16 (protein, UniProt Q9H2A7 30-254, looked up)
C-X-C motif chemokine 16: NEGSVTGSCYCGKRISSDSPPSVQFMNRLRKHLRAYHRCLYYTRFQLLSWSVCGGNKDPWVQELMSCLDLKECGHAYSGIVAHQKHLLPTSPPISQASEGASSDIHTPAQMLLSTLQSTQRPTLPVGSLSSDKELTRPNETTIHTAGHSLAAGPEAGENQKQPEKNAGPTARTSATVPVLCLLAIIFILTAALSYVLCKRRRGQSPQSSPDLPVHYIPVAPDSNT
Consider B4, for which the pKd_value (receptor CXCR6 (cxcr6_human, O00574)) is given as 9.

B5: CCL24 (protein, UniProt O00175 27-119, looked up)
C-C motif chemokine 24: VVIPSPCCMFFVSKRIPENRVVSYQLSSRSTCLKAGVIFTTKKGQQFCGDPKQEWVQRYMKNLDAKQKKASPRARAVAVKGPVQRYPGNQTTC
Turning to B5, the pIC50_value under setting [10] is on record as 9.4.

B6: annexin I (protein, UniProt P04083 2-346, looked up)
Annexin A1: AMVSEFLKQAWFIENEEQEYVQTVKSSKGGPGSAVSPYPTFNPSSDVAALHKAIMVKGVDEATIIDILTKRNNAQRQQIKAAYLQETGKPLDETLKKALTGHLEEVVLALLKTPAQFDADELRAAMKGLGTDEDTLIEILASRTNKEIRDINRVYREELKRDLAKDITSDTSGDFRNALLSLAKGDRSEDFGVNEDLADSDARALYEAGERRKGTDVNVFNTILTTRSYPQLRRVFQKYTKYSKHDMNKVLDLELKGDIEKCLTAIVKCATSKPAFFAEKLHQAMKGVGTRHKALIRIMVSRSEIDMNDIKAFYQKMYGISLCQAILDETKGDYEKILVALCGGN
Consider B6, for which, where the note is “receptor fpr2_human (FPR2, P25090)”, the pKd_value is on record as 6.5.

B7: CCL15 (protein, UniProt Q16663 22-113, looked up)
C-C motif chemokine 15: QFTNDAETELMMSKLPLENPVVLNSFHFAADCCTSYISQSIPCSLMKSYFETSSECSKPGVIFLTKKGRQVCAKPSGPGVQDCMKKLKPYSI
B7: the pIC50_value is, setting by setting: under setting [9], 7.9; under setting [10], 8.6.

B8: CCL14 (protein, UniProt Q16627 20-93, looked up)
C-C motif chemokine 14: TKTESSSRGPYHPSECCFTYTTYKIPRQRIMDYYETNSQCSKPGIVFITKRGHSVCTNPSDKWVQDYIKDMKEN
For the molecule B8, the pKi_value is 7.4 under setting [9] and 7.2 under setting [8].

B9: INSL3 (protein, UniProt P51460 21-55; P51460 106-131, looked up)
Insulin-like 3 B chain: LGPAPTPEMREKLCGHHFVRALVRVCGGPRWSTEA
Insulin-like 3 A chain: AAATNPARYCCLSGCTQQDLLTLCPY
Consider B9, for which, under setting [2], the pKd_value is recorded as 10.4 and the pKi_value is 9.7.

B10: CCL4 (protein, UniProt P13236 24-92, looked up)
C-C motif chemokine 4: APMGSDPPTACCFSYTARKLPRNFVVDYYETSSLCSQPAVVFQTKRSKQVCADPSESWVQEYVYDLELN
Regarding B10, the pKi_value by setting is: under setting [9], 7.8; under setting [8], 9.6.

B11: XCL1 (protein, UniProt P47992 22-114, looked up)
Lymphotactin: VGSEVSDKRTCVSLTTQRLPVSRIKTYTITEGSLRAVIFITKRGLKVCADPQATWVRDVVRSMDRKSNTRNNMIQTKPTGTQQSTNTAVTLTG
Turning to B11, the pEC50_value under setting [11] is recorded as 7.3.

B12: XCL2 (protein, UniProt Q9UBD3 22-114, looked up)
Cytokine SCM-1 beta: VGSEVSHRRTCVSLTTQRLPVSRIKTYTITEGSLRAVIFITKRGLKVCADPQATWVRDVVRSMDRKSNTRNNMIQTKPTGTQQSTNTAVTLTG
Turning to B12, the pEC50_value under setting [11] was 7.3.

B13: CCL17 (protein, UniProt Q92583 24-94, looked up)
C-C motif chemokine 17: ARGTNVGRECCLEYFKGAIPLRKLKTWYQTSEDCSRDAIVFVTVQGRAICSDPNNKRVKNAVKYLQSLERS
With B13, the pIC50_value under setting [12] is 8.7.

B14: CX3CL1 (protein, UniProt P78423 25-397, looked up)
Fractalkine: QHHGVTKCNITCSKMTSKIPVALLIHYQQNQASCGKRAIILETRQHRLFCADPKEQWVKDAMQHLDRQAAALTRNGGTFEKQIGEVKPRTTPAAGGMDESVVLEPEATGESSSLEPTPSSQEAQRALGTSPELPTGVTGSSGTRLPPTPKAQDGGPVGTELFRVPPVSTAATWQSSAPHQPGPSLWAEAKTSEAPSTQDPSTQASTASSPAPEENAPSEGQRVWGQGQSPRPENSLEREEMGPVPAHTDAFQDWGPGSMAHVSVVPVSSEGTPSREPVASGSWTPKAEEPIHATMDPQRLGVLITPVPDAQAATRRQAVGLLAFLGLLFCLGVAMFTYQSLQGCPRKMAGEMAEGLRYIPRSCGSNSYVLVPV
On to B14, for which, where the note is “receptor CX3CR1 (cx3c1_human, P49238)”, the pIC50_value is recorded as 8.9.

B15: CXCL7 (protein, UniProt P02775 59-128, looked up)
Neutrophil-activating peptide …: AELRCMCIKTTSGIHPKNIQSLEVIGKGTHCNQVEVIATLKDGRKICLDPDAPRIKKIVQKKLAGDESAD
modifications: Neutrophil-activating peptide 2
As to B15, for the setting “receptor CXCR2 (cxcr2_human, P25025)”, the pIC50_value is recorded as 9.3.

B16: CCL21 (protein, UniProt O00585 24-134, looked up)
C-C motif chemokine 21: SDGGAQDCCLKYSQRKIPAKVVRSYRKQEPSLGCSIPAILFLPRKRSQAELCADPKELWVQQLMQHLDKTPSPQKPAQGCRKDRGASKTGKKGKGSKGCKRTERSQTPKGP
On to B16, for which the pIC50_value (receptor CCR7 (ccr7_human, P32248)) is 9.3.

B17: CCL22 (protein, UniProt O00626 25-93, looked up)
C-C motif chemokine 22: GPYGANMEDSVCCRDYVRYRLPLRVVKHFYWTSDSCPRPGVVLLTFRDKEICADPRVPWVKMILNKLSQ
Take B17: the pIC50_value under setting [12] was 9.2.

B18: CCL1 (protein, UniProt P22362 24-96, looked up)
C-C motif chemokine 1: KSMQVPFSRCCFSFAEQEIPLRAILCYRNTSSICSNEGLIFKLKRGKEACALDTVGWVQRHRKMLRHCPSKRK
For the molecule B18, under “receptor CCR8 (ccr8_human, P51685)”, the pIC50_value is 9.8.
